{
  "source": "patent EP3181118B1",
  "about": "“SYNERGISTIC COMBINATION OF TXNR INHIBITORS AND ASCORBATE FOR TREATMENT OF B CELL MALIGNANCIES” (Warszawski Uniwersytet Medyczny, priority 2015, dated 2017)",
  "key": {"Raji cells [1]": {"system": "Raji cells", "experiment": "MTT assay, cytostatic/cytotoxic effects", "format": "cell-based, human", "conditions": "48 hours, Fig. 1", "experimental": "Raji cells were grown in RPMI medium supplemented with 10% fetal bovine serum and antibiotic/antimycotic solution. Raji cells were incubated for 15 min at 37 °C with 100 µM or 200 µM L-ASC and then TXNR inhibitors, SK053 or AUR, were added and the cells were cultured for additional 48 hours. Cytostatic/cytotoxic effects of treatment were assessed by:\n(a) MTT (3-[4,5-dimethylthiazol-2-yl]-2,5-diphenyltetrazolium bromide) assay\n20 µl of MTT (5mg/ml in PBS) was added to 100 µl of cells and maintained in cell culture conditions. After 2 hours, 100 µl of solubilization buffer (10% SDS, 0,01N HCl) was added to each well and plates were maintained in a cell culture incubator overnight. The absorbance was measured at 560 nm using a microplate reader (ASYS UVM 340, Biochrom). The relative viability was calculated according to the following formula: % viability = [(Am - Ab)/(Ac - Ab)] × 100%, where Am is the measured absorbance, Ab is the background absorbance, and Ac is the absorbance of vehiculum-treated controls (DMSO)."}, "Raji cells [2]": {"system": "Raji cells", "experiment": "Number of dead cells by propidium iodide staining, flow cytometry", "format": "cell-based, human", "conditions": "48 hours, Fig. 2; for propidium iodide-positive cells (dead cells): compound alone (L-ASC 100 µM)", "experimental": "Raji cells were grown in RPMI medium supplemented with 10% fetal bovine serum and antibiotic/antimycotic solution. […] Cytostatic/cytotoxic effects of treatment were assessed by:\n(b) Quantitation of the number of dead cells with propidium iodide staining using flow cytometry\n100 µl of cells were mixed with 100 µl of propidium iodide solution (4 µg/ml in PBS) and the number of propidium iodide-positive cells (dead cells) was assessed using flow cytometer Accuri C6."}, "[3]": {"system": "normal B cells isolated from human tonsils", "experiment": "Non-viable cells by propidium iodide staining in normal B cells", "format": "cell-based", "conditions": "TXNR inhibitor in combination with L-ASC, 48 hours, three healthy donors, Fig. 5", "experimental": "Human tonsils were derived from subjects undergoing tonsillectomy. After resection, tonsils were cut into small pieces and incubated in the RPMI medium supplemented with collagenase and DNase for 30 min at 37 °C with gentle shaking and filtered through 70 µm cell strainer. After washing in PBS, mononuclear cells were isolated with Histopaque 1077 density gradient and subjected to CD19 negative selection using EasySep™ Human B Cell Enrichment Kit ([…] Technologies). The purity of isolated B cells exceeded 95%. Subsequently, B cells were suspended in RPMI medium supplemented with 10% fetal bovine serum and antibiotic/antimycotic solution, and incubated with L-ASC, SK053, AUR, exactly as Raji cells (described in Example 1). After 48 hours of incubation, the number of non-viable cells was determined by flow cytometry, as the fraction of propidium iodide positive cells. […] This experiment was repeated in three different healthy donors."}, "[4]": {"conditions": "cited from earlier work"}, "adult mice": {"system": "adult mice", "conditions": "cited from earlier work"}, "adult rats": {"system": "adult rats", "conditions": "cited from earlier work"}, "Raji cells [5]": {"system": "Raji cells", "experiment": "Intracellular ROS level, CM-H2-DCFDA fluorescent probe, flow cytometry", "format": "cell-based, human", "experimental": "The level of intracellular ROS in Raji cells treated with L-ASC and SK053 alone or in combination was evaluated. Raji cells were loaded with CM-H2-DCFDA fluorescent probe (Molecular Probes) according to the manufacturer's protocol, using 1 µM dye concentration for 30 min. at 37 °C. […] After 8 hours cells were harvested in PBS and the intensity of green fluorescence was analyzed by flow cytometry (Accuri C6)."}, "lymphoma cells": {"system": "lymphoma cells", "conditions": "lymphoma cells in vitro; cited from earlier work"}, "[6]": {"conditions": "cited from earlier work", "remark": "listed apart in the source"}, "advanced cancers": {"system": "advanced cancers", "conditions": "patients with advanced cancers, L-ASC-treated subjects; cited from earlier work"}, "Raji cells [7]": {"system": "Raji cells", "experiment": "Comparison of ascorbate stereoisomers and oxidized form combined with TXNR inhibitors (Fig. 3)", "format": "cell-based, human", "conditions": "ascorbate form combined with SK053 or AUR"}},
  "note": "Like-named read-outs stand apart in the source and are kept apart here.",
  "data": [
    {"compound": "CC(=O)OC[C@H]1O[C@@H]([S-])[C@H](OC(C)=O)[C@@H](OC(C)=O)[C@@H]1OC(C)=O.CCP(CC)CC.[Au+]", "note": "[AUR, (2,3,4,6-tetra-O-acetyl-1-thio-β-D-glucopyranosato-S-) (triethyl-phosphine) gold complex]", "values": [
      {"measurement": "cytostatic/cytotoxic effects of TXNR inhibitor in combination with L-ASC", "setting": "Raji cells [1]; in combination with 100 µM or 200 µM L-ASC", "value": "remarkably increased the cytostatic/cytotoxic effects"},
      {"measurement": "dead cells", "setting": "Raji cells [2]; TXNR inhibitor in combination with 100 µM L-ASC", "value": "~100", "unit": "%"},
      {"measurement": "propidium iodide-positive cells (dead cells)", "setting": "Raji cells [2]", "value": "< 10", "unit": "%"},
      {"measurement": "synergistic cytotoxic effect with L-ASC, fraction of propidium iodide positive cells", "setting": "[3]", "value": "synergistic cytotoxic effect between none of the TXNR inhibitors and L-ASC was observed"},
      {"measurement": "labelled gold excreted", "setting": "[4]; by day 10, total", "value": 77, "unit": "%"},
      {"measurement": "labelled gold excreted with feces", "setting": "[4]; by day 10", "value": 73, "unit": "%"},
      {"measurement": "labelled gold excreted with urine", "setting": "[4]; by day 10", "value": 4, "unit": "%"},
      {"measurement": "AUR gold bound to red blood cells", "setting": "[4]; in blood", "value": "approximately 40%"},
      {"measurement": "AUR gold bound to serum proteins", "setting": "[4]; in blood", "value": 60, "unit": "%"},
      {"measurement": "oral dose absorbed", "setting": "[4]; oral, radiolabelled AUR", "value": "approximately 25%"},
      {"measurement": "peak plasma concentrations", "setting": "[4]; oral, radiolabelled AUR", "value": "0.3 to 0.4", "unit": "µM"},
      {"measurement": "time to reach peak plasma concentrations", "setting": "[4]; oral, radiolabelled AUR", "value": "1 to 2", "unit": "h"},
      {"measurement": "mean plasma half-life", "setting": "[4]; radiolabelled AUR", "value": 17, "unit": "days"},
      {"measurement": "labelled gold retained in the body", "setting": "[4]; six months after a single dose", "value": "0,4%"},
      {"measurement": "acute oral LD50", "setting": "adult mice", "value": 310, "unit": "mg/kg"},
      {"measurement": "acute oral LD50", "setting": "adult rats; adult rats, oral", "value": 265, "unit": "mg/kg"},
      {"measurement": "minimum lethal dose", "setting": "adult rats; rats", "value": 30, "unit": "mg/kg"}
    ]},
    {"compound": "O=C1O[C@H]([C@@H](O)CO)C(O)=C1O", "note": "[L-ASC, L-ascorbate]", "values": [
      {"measurement": "viability of Raji cells", "setting": "Raji cells [1]; L-ASC alone at 100 µM and 200 µM", "value": "did not affect the viability"},
      {"measurement": "propidium iodide-positive cells (dead cells)", "setting": "Raji cells [2]", "value": "< 10", "unit": "%"},
      {"measurement": "ROS levels in the presence of catalase", "setting": "Raji cells [5]; compound alone, with 100 µg/ml catalase, Fig. 4B", "value": "at the control levels"},
      {"measurement": "ROS levels", "setting": "Raji cells [5]; compound alone: 100 µM ASC or 20 µM SK053, 8 hours, Fig. 4A", "value": "only slightly increased ROS levels"},
      {"measurement": "LD50", "setting": "lymphoma cells", "value": "~0,5 mM"},
      {"measurement": "plasma concentration", "setting": "[6]; high oral doses", "value": "approximately 220 µM"},
      {"measurement": "L-ASC plasma concentrations", "setting": "[6]; intravenous (i.v.) delivery", "value": "up to 20 mM"},
      {"measurement": "L-ASC plasma concentrations", "setting": "[6]; oral administration, maximal", "value": "≤ 300", "unit": "µM"},
      {"measurement": "peak plasma concentrations", "setting": "[6]; slow i.v. infusion of high doses", "value": "over 10 mM"},
      {"measurement": "increased mean survival time (MST)", "setting": "advanced cancers", "value": "over 4 fold"}
    ]},
    {"compound": "O=C1O[C@H]([C@@H](O)CO)C(=O)C1=O", "note": "[L-DHA, dehydroascorbic acid]", "values": [
      {"measurement": "interaction with TXNR inhibitors (SK053, AUR), cytotoxicity to Raji cells", "setting": "Raji cells [7]", "value": "had no impact on cytotoxicity"}
    ]}
  ]
}
